{"source": "patent US5204355A", "about": "“15-nitro-2β, 3β-dihydro- and 15-nitro-2β,3β,6,7-tetrahydrotabersonine derivatives, pharmaceutical compositions containing them and process for preparing same” (Richter Gedeon Vegyeszeti Gyar RT., priority 1990, dated 1993)", "key": {"[1]": {"tested_on": "TET-induced increase in the brain water content", "assay": "TET-induced cerebral edema in rats (brain water content, protective effect)", "format": "in vivo, inbred male Hannover Wistar rats", "conditions": "for Brain water content % ± S.E.M. / Protective effect %: 5 days TET 2.5 mg/kg; for protective action against TET-induced edema (in words): result in words", "text": "The inhibitory effect on the cerebral edema of the compounds of formula (I) was studied by using the method of P. Linnee et al. \"L'oedeme cerebral induit chez 1e rat par le triethyletain. Interet et limites comme methode d'etude de antioedemateux cerebraux\", Ann. Pharmaceutiques francaises, 42, 431 (1984)) as described hereinafter in detail.\nInbred male Hannover Wistar rats weighing 180 to 200 g were used in these examinations. Before starting and during the treatment the animals were kept on normal laboratory diet and received tap water ad libitum.\nThe cerebral edema was induced by the daily administration of 2.5 mg/kg of triethyl-tin chloride (abbreviated hereinafter as TET) for 5 days. TET (Merck-Schuchardt, Darmstadt, Germany) was dissolved in distilled water under stirring and the stirring was continued during the treatment, too. TET was orally administered to the animals every day at 7 o'clock a.m.\nBoth the reference drugs and test compounds were homogenized in a 0.5 % carboxymethylcellulose solution by using an Ultra Turrax mixer and stirring was continued also during the administration. The first dose of the reference and test compounds, respectively, was orally 5 given following the TET treatment by 1 or 6 hours, respectively. The administration was always carried out in a volume of 0.5 ml/100 g of body-weight. Each group consisted of 7 animals; the control group received only the solvent of TET (distilled water) and the vehicle used for the compounds (0.5% carboxymethylcellulose solution) in an identical volume and at the same time as described above.\nThe animals were decapitated on the 5th day of the treatment at 2 hours after the last treatment (with the test compound). The whole brain was rapidly removed, washed with cold 0.9 % saline, the moisture was removed by a filter paper, the brains were placed on aluminum foils previously weighed and the wet weights of the brains (together with the aluminum foil of known weight) were determined with an accuracy of one tenth mg on an electric balance (Precisa 80/A, PAG Oerlikon AG, Zurich, Switzerland).\nSubsequently the brains were dried at 90° C. for 92 hours, then the gross dry weight (dry weight of the brain together with the weight of the aluminum foil) was again measured. With the knowledge of the dry and wet weights, the brain water content, i.e. the effect of treatment by the compound was calculated and expressed in the percentage of the protective effect by using the following formula: [formula] wherein (TET-Ko) means the percentage of average brain water content of the animals treated with TET and vehicle;\n(TET-V) means the percentage of average brain water content of the animals treated with TET and the compound; and\n(Veh-Ko) means the percentage of average brain water content of the animals treated with distilled water and vehicle.\nThe deviations of changes in the brain water content (and dry weight) were analyzed by the means of Student's \"t\" trial."}, "Asphyxial anoxia": {"tested_on": "Asphyxial anoxia", "assay": "Antihypoxic effect on mice (asphyxial anoxia)", "format": "in vivo, male mice (CFLP LATI)", "conditions": "for ED50: Mus musculus, po, 1 hour before, protected = survival 30 % longer than control", "description": "The antianoxic action of the target compounds was studied by using the following test method.\nANTIHYPOXIC EFFECT ON MICE\nMale mice (CFLP LATI) weighing 24 to 26 g were used in these experiments. The test compounds were orally administered in a volume of 10 ml/kg one hour before starting the experiment.\nThe animals were orally treated with various doses of the test compounds after starving for 16 hours. One hour following the treatment the animals were placed in air-tight glass cylinders of 100 ml volume and the survival time of the animals was measured. Each group consisted of 10 animals. Animals, surviving longer by 30 % than the average survival time of the control group treated with placebo, were considered to be protected. The ED50 value (the dose effective in 50 % of the animals) was calculated from the percentage of surviving animals by using probit analysis."}}, "data": [{"molecule": "CC[C@]12CCCN3CC[C@@]4(c5cc([N+](=O)[O-])ccc5N[C@H]4[C@@H](C(=O)OC)C1)[C@@H]32", "note": "[compound 1704369, methyl 15-nitro-(2β, 5α, 12β, 19α)-aspidospermidine-3α-carboxylate]", "values": [{"measurement": "protection against the edema-inducing effect of TET", "setting": "[1]; 100 μmol/kg oral, summary of experiments in text", "result": 100, "unit": "%"}, {"measurement": "Brain water content % ± S.E.M.", "setting": "[1]; Experiment 1, 100 μmol/kg oral", "result": "78.09 ± 0.09", "unit": "%"}, {"measurement": "Protective effect %", "setting": "[1]; Experiment 1, 100 μmol/kg oral", "result": 103.6, "unit": "%"}, {"measurement": "Brain water content % ± S.E.M.", "setting": "[1]; Experiment 2, 100 μmol/kg oral", "result": "78.15 ± 0.05", "unit": "%"}, {"measurement": "Protective effect %", "setting": "[1]; Experiment 2, 100 μmol/kg oral", "result": 99.3, "unit": "%"}, {"measurement": "Brain water content % ± S.E.M.", "setting": "[1]; Experiment 4, 50 μmol/kg oral", "result": 78.30, "unit": "%"}, {"measurement": "Protective effect %", "setting": "[1]; Experiment 4, 50 μmol/kg oral", "result": 105.9, "unit": "%"}, {"measurement": "protective action against TET-induced edema (in words)", "setting": "[1]", "result": "even more effective than the structurally similar vincamine"}]}, {"molecule": "COC1=C(OC)C(=O)C(CCCCCCCCCCO)=C(C)C1=O", "note": "[idebenone, 5,6-dimethoxy-2-(10-hydroxydecyl)-3-methyl-p-benzoquinone]", "values": [{"measurement": "Brain water content % ± S.E.M.", "setting": "[1]; Experiment 3, 100 μmol/kg oral", "result": "79.75 ± 0.14", "unit": "%"}, {"measurement": "Protective effect %", "setting": "[1]; Experiment 3, 100 μmol/kg oral", "result": 14.0, "unit": "%"}, {"measurement": "Brain water content % ± S.E.M.", "setting": "[1]; Experiment 6, 100 μmol/kg oral", "result": "80.22 ± 0.16", "unit": "%"}, {"measurement": "Protective effect %", "setting": "[1]; Experiment 6, 100 μmol/kg oral", "result": 16.9, "unit": "%"}, {"measurement": "protective action against TET-induced edema (in words)", "setting": "[1]", "result": "did not produce any practically useful protective action"}]}, {"molecule": "CC[C@]12CCCN3CC[C@]4(C(=C(C(=O)OC)C1)Nc1ccc([N+](=O)[O-])cc14)[C@@H]32", "note": "[compound 1700374, 15-nitro-6,7-dihydrotabersonine]", "values": [{"measurement": "ED50", "setting": "Asphyxial anoxia", "result": "> 100", "unit": "mg/kg"}, {"measurement": "protection against cerebral hypoxia (in words)", "setting": "Asphyxial anoxia; result in words, up to 100 mg/kg p.o.", "result": "did not provide any protection"}]}, {"molecule": "CC[C@]12C=CCN3CC[C@@]4(c5cc([N+](=O)[O-])ccc5N[C@H]4[C@@H](C(=O)OC)C1)[C@@H]32", "note": "[compound 1703594, methyl-15-nitro-6,7-didehydro-(2β, 5α, 12β, 19α)-aspidospermidine-(15-nitro-2β, 3β-dihydrotabersonine)]", "values": [{"measurement": "Brain water content % ± S.E.M.", "setting": "[1]; Experiment 4, 50 μmol/kg oral", "result": 78.61, "unit": "%"}, {"measurement": "Protective effect %", "setting": "[1]; Experiment 4, 50 μmol/kg oral", "result": 82.9, "unit": "%"}, {"measurement": "ED50", "setting": "Asphyxial anoxia", "result": 56.3, "unit": "mg/kg"}]}, {"molecule": "(5'α, 10α)-9, 10-dihydro-12'-hydroxy- 2'-methylethyl)-5'-benzylergotamine-3+, 6', 18-trione monomethanesulfonate [hydergine]", "values": [{"measurement": "Brain water content % ± S.E.M.", "setting": "[1]; Experiment 6, 30 mg/kg oral", "result": "79.97 ± 0.38", "unit": "%"}, {"measurement": "Protective effect %", "setting": "[1]; Experiment 6, 30 mg/kg oral", "result": 25.6, "unit": "%"}, {"measurement": "protective action against TET-induced edema (in words)", "setting": "[1]", "result": "did not produce any practically useful protective action"}]}, {"molecule": "CCOC(=O)[C@H]1C[C@]2(CC)CCCN3CC[C@@]4(c5cc([N+](=O)[O-])ccc5N[C@@H]14)[C@@H]32", "note": "[compound 1708009, ethyl 15-nitro-(2β, 5α, 12β, 19α)-aspidospermidine-3α-carboxylate]", "values": [{"measurement": "Brain water content % ± S.E.M.", "setting": "[1]; Experiment 3, 50 μmol/kg oral", "result": "79.44 ± 0.11", "unit": "%"}, {"measurement": "Protective effect %", "setting": "[1]; Experiment 3, 50 μmol/kg oral", "result": 32.5, "unit": "%"}, {"measurement": "protective action against TET-induced edema (in words)", "setting": "[1]", "result": "similarly effective"}, {"measurement": "ED50", "setting": "Asphyxial anoxia", "result": 62, "unit": "mg/kg"}]}, {"molecule": "NC(=O)CN1CCCC1=O", "note": "[piracetam, 2-oxo-1-pyrrolidineacetic acid amide]", "values": [{"measurement": "Brain water content % ± S.E.M.", "setting": "[1]; Experiment 5, 100 μmol/kg oral", "result": "80.04 ± 0.28", "unit": "%"}]}, {"molecule": "CC[C@]12CCCN3CCc4c(n(c5ccccc45)[C@@](O)(C(=O)OC)C1)[C@@H]32", "note": "[vincamine, (+) -14β-hydroxy-14α-methoxycarbonyl-14, 15- -dihydroeburnamenine]", "values": [{"measurement": "Brain water content % ± S.E.M.", "setting": "[1]; Experiment 1, 100 μmol/kg oral", "result": "78.83 ± 0.15", "unit": "%"}, {"measurement": "Protective effect %", "setting": "[1]; Experiment 1, 100 μmol/kg oral", "result": 64.9, "unit": "%"}, {"measurement": "Brain water content % ± S.E.M.", "setting": "[1]; Experiment 2, 100 μmol/kg oral", "result": "78.70 ± 0.13", "unit": "%"}, {"measurement": "Protective effect %", "setting": "[1]; Experiment 2, 100 μmol/kg oral", "result": 59.6, "unit": "%"}, {"measurement": "Brain water content % ± S.E.M.", "setting": "[1]; Experiment 4, 50 μmol/kg oral", "result": 79.31, "unit": "%"}, {"measurement": "Protective effect %", "setting": "[1]; Experiment 4, 50 μmol/kg oral", "result": 31.6, "unit": "%"}]}]}
